Experimental data reported in patent US20160193162A1 (TIANJIN TAIPU PHARMACEUTICAL SCIENCE & TECHNOLOGY …, priority 2013, published 2016).
Where two headings read alike, the source gives them in different places.

Legend:
[1] = system: brain nerve cells of an adult rat; settings: cited from earlier work
[2] = powder diffraction of sample tablets after acceleration; type: physicochemical; settings: sample tablets accelerated for two months
Description: Chinese patent CN1101704763A recites a preparation method of the I-form crystals. […] Changes in crystal forms, on the one hand may result in infringement, and on the other hand may further lead to inconsistency in bioavailability of drugs. Therefore, it is very important to solve the problem of stability of crystal forms during the processes of the tablet manufacture and preservation.

[3] = test on influencing factors (high temperature, high humidity); type: physicochemical
Procedure: 2) Test on influencing factors: we investigated in combination with formulations of the present invention: the samples were allowed to stand in an open state for 30 days under the conditions of a high temperature of 60° C., a high humidity of RH 92%, and both high temperature and high humidity (40° C., RH75%), respectively.

[4] = solubility of crystalline I-form agomelatine in solvents; type: physicochemical
[5] = I-form crystal purity by DSC of raw material after pulverization, grinding, tabletting; type: physicochemical
Description: Change of the crystalline I-form raw material in pulverization, grinding, and tabletting (at a pressure of 10 kg) was detected by DSC (see FIGS. 1-4).

[6] = stability in the process: crystal form purity (DSC) and relevant substances (HPLC); type: physicochemical; settings: stage of the manufacturing process
Description: Referring to the aforementioned test 6, tablets were manufactured according to formulation and process with hydroxyproplyl methyl cellulose and polyvinylpyrrolindone k30 in a concentration of 15% as a protective agent.
1) Stability in the process: crystal form purity of the tablets was detected using DSC method with crystal forms and relevant substances as evaluation indexes. Regarding detection of relevant substances, HPLC method was adopted using imported drug as a standard.

Compound: COc1ccc2cccc(CCNC(C)=O)c2c1 [Agomelatine, agomelatine]
- cell proliferation and neuronal regeneration in hippocampal ventral dentate gyrus ([1]; acute or subacute administration (4 hours or nine weeks)): no similar situation occurred
- cell proliferation and neuronal regeneration in hippocampal ventral dentate gyrus ([1]; long-term (three weeks) administration): increase cell proliferation and neuronal regeneration

Compound: COc1ccc2cccc(CCNC(C)=O)c2c1 [agomelatine]
- crystal form by powder diffraction [2]: almost completely converted to the II form
- Crystal form purity % ([3]; 0 day): 100%
- Crystal form purity % ([3]; 10 days at a high humidity (RH 92%), open state): 80%
- Crystal form purity % ([3]; 10 days at a high temperature (60° C.), open state): 65%
- Crystal form purity % ([3]; 10 days at both high temperature and high humidity (40° C., RH75%), open state): 35%
- solubility ([4]; in DMSO): very soluble
- solubility ([4]; in acetonitrile): very soluble
- solubility ([4]; in ethanol): very soluble
- solubility ([4]; in methanol): very soluble
- solubility ([4]; in water): almost insoluble
- I-form crystal purity (%) detected by DSC ([5]; after grinding): 97.5%
- I-form crystal purity (%) detected by DSC ([5]; after pulverization): 90.0%
- I-form crystal purity (%) detected by DSC ([5]; after tabletting at a pressure of 10 kg): 74.3%
- I-form crystal purity (%) detected by DSC ([5]; raw material, untreated): 100%
- Crystal form purity ([6]; DSC): 100
- Relevant substances ([6]; HPLC): 0.32%
